Measured values: patent US20240050436A1, “COMPOSITIONS AND METHODS USED FOR RETINAL ISCHEMIA OR DIABETES” (The United States GOVERNMENT As Represented By The …, priority 2021, published 2024)
“Also recorded” adds a separate entry of the source.

How the values were obtained:
[1] = normal young and elderly individuals; cited from earlier work
[2] = cited from earlier work
HREs [3] = assay: Tube formation assay (Matrigel); format: cell-based, human; conditions: 24 h of treatment with CM of modulated MSCs
Description: Corning Matrigel Matrix (10 mg protein/mL) Growth Factor Reduced (Corning Inc., Cat. No. 354230, Corning, NY, USA) was used for tube formation assay. Then, 289 μL of cold (4° C.) Matrigel per well was added into chilled 24-well flat-bottom tissue culture plate (USA Scientific Inc., Ocala, FL, USA) and polymerized for 1 h at 37° C., 5% CO2 incubator. HREs were trypsinized and separated into different groups. Each group of cells was centrifuged and cell pellets were resuspended in regular media without FBS, same media with 1:1 mixture of FBS free regular media and CM of vehicle- or treated-MSCs. Then 300 μL of the cell suspension was added onto each well of Matrigel coated 24-well culture plate and incubated at 37° C. After 24-h, cells forming tube structures were analyzed by microscopy. Cells in five replicate fields of triplicate wells were digitally photographed with an EVOS microscope (Thermo Fisher Scientific Inc., Waltham, MA, USA). The images for Tube formation assay were analyzed using Angiogenesis analyzer for imageJ. An area of 1.8 mm2 from each well was analyzed with imageJ ver. 1.53c, and 3 wells were analyzed per group. […] The total tubular length was calculated as the average of the total tubule length from three wells, five random fields per well.

p75^NTR on MSCs = molecular target: T1, p75^NTR on MSCs (Mus musculus, UniProt Q9Z0W1); assay: MSCs secretome: Western blotting of MSCs conditioned medium (CM); format: cell-based; conditions: Western blot of CM vs control CM; LM11A-31: 200 nM, 12 h; or p75NTR siRNA silencing
T1 construct: endogenous in cells; host or cells: GFP-labeled mouse mesenchymal stem cells (passages 5-9)
T1 sequence (Q9Z0W1 32-427): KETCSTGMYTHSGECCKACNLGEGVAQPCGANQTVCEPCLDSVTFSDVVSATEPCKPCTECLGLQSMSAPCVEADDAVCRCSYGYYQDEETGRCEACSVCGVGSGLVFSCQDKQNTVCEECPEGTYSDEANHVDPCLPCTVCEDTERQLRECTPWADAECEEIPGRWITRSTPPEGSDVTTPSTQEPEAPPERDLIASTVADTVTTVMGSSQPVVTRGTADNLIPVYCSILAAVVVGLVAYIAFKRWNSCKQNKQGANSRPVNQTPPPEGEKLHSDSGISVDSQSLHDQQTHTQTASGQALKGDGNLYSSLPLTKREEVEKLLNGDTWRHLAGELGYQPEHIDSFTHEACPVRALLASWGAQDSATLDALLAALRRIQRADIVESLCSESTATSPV
Description: (§1) GFP-labeled mouse MSCs were obtained as a kind gift from Dr. William D. Hill (MUSC, Charleston, SC) and used between passages 5-9. MSCs cells were cultured in high glucose DMEM (4.5 g/L D-glucose, Thermo-Fisher Grand Island, NY, USA) supplemented with 10% FBS and 1% penicillin/streptomycin at 37° C. and 5% CO2. Knocking down p75NTR expression was performed according to manufacturer's instructions (Santa Cruz Biotechnology Inc., Dallas, TX, USA). Briefly, MSCs were shifted to antibiotic-free medium over night when 60-80% confluent. Cells were transfected with Si-RNA against p75NTR receptor (sc-37268) or scrambled (sc-37007) with the aid of lipofectamine transfection reagent (sc-29528) for 6 h. DMEM medium containing 2× of FBS and antibiotic was added on top of pure transfection medium for an extra 12 h. Next, transfection medium was removed and cells were allowed to recover in 1×DMEM medium for 6 h. For in vivo studies, cells were collected in sterile PBS (50,000 cells/μL) for intravitreal injection 48 h after I/R. For additional set of experiments, MSCs were treated with the p75NTR modulator (LM11A-31, 200 nM). Confluent MSCs (80% confluent) were treated with LM11A-31 or its vehicle for 12 h. Then, condition media were collected as well as cell lysates using mirVANA™ PARIS™ Kit (Ambion Inc., Austin, TX, USA), according to manufacturer's instructions.

p75NTR = conditions: cultures of p75NTR−/− neurons; cited from earlier work
[4] = cited from earlier work; remark: listed apart in the source
p75^NTR [5] = molecular target: T2, p75^NTR (Mus musculus, UniProt Q9Z0W1); assay: Interventional treatment of STZ-diabetic mice (16-weeks diabetes): kidney and systemic readouts; format: in vivo; conditions: 50 mg/Kg, po, QOD, 12 weeks
T2 construct: Interventional treatment with the p75^NTR modulator LM11A-31 (50 mg/Kg, po, QOD) for 12 weeks; from tissue; host or cells: living STZ-diabetic mice (kidney, urine, blood, body weight)
T2 sequence (Q9Z0W1 32-427): T1 sequence (Q9Z0W1 32-427)

HREs [6] = assay: RT-PCR gene expression in HREs treated with CM of p75NTR-modulated MSCs; format: cell-based, human
Description: as §1
All human retinal endothelial (HRE) cell studies were in accordance with Association for Research in Vision and Ophthalmology and Charlie Norwood Veterans Affairs Medical Center, research and ethics committee. HREs and supplies were purchased from Cell Systems Corporation (Kirkland, WA, USA) and VEC Technology Inc. (Rensselaer, NY, USA).
Retinas samples and MSCs lysates were processed using (mirVANA™ PARIS™ Kit, Ambion Inc., Austin, TX, USA) and RNA was purified and quantified as described by the manufacturer's instructions. A one-step quantitative RT-PCR kit (Invitrogen, Carlsbad, CA, USA) was used to amplify 10 ng retinal mRNA. Quantitative PCR was conducted using a StepOnePlus qPCR system (Applied BioSystems, Life Technologies, Waltham, MA, USA). For HREs, RNA isolation was performed using the TRIzol Reagent (Invitrogen, Waltham, MA, USA), according to the manufacturer's instructions. RNA concentration was quantified by spectrophotometry at 260 nm using Nanodrop 2000 (Thermo Fisher Scientific, Waltham, MA, USA). A total of 1 μg of RNA was reverse transcribed to prepare cDNA using the RNA to cDNA EcoDry premix (Takara Bio USA Inc., Mountain View, CA, USA). Real-time PCR was performed using the CFX96 PCR instrument with matched primers (See Table 1) and Universal SYBR Green Supermix (Bio-Rad, Hercules, CA, USA). The following PCR parameters were used: initial denaturation cycle at 95° C. for 3 min, followed by 40 amplification cycles at 95° C. for 10 s, 56° C. for 15 s, and 72° C. for 1 min. The results are presented as the fold change in relative gene expression quantified using the delta-delta CT method and normalized to internal controls (18 S, GAPDH) and expressed relative to controls.

p75^NTR [7] = molecular target: T2, p75^NTR; assay: Visual acuity test (cue version of Morris water maze) post retinal I/R; format: in vivo; conditions: WT mice
Description: For surgeries, mice were anesthetized with intraperitoneal ketamine (50 mg/kg; Hospira, Inc., Lake Forest, IL, USA) and xylazine (10 mg/kg; Akorn, Decatur, IL, USA). Retinal ischemia/reperfusion (I/R) was performed as described previously in Coucha, M. et al. Modulating Expression of Thioredoxin Interacting Protein (TXNIP) Prevents Secondary Damage and Preserves Visual Function in a Mouse Model of Ischemia/Reperfusion. Int. J. Mol. Sci. 2019, 20. Briefly, pupils were dilated with 1% Atropine Sulfate (Akorn, Inc., Lake Forest, IL, USA). The anterior chamber was cannulated with a 32 gauge needle attached to a line from a saline reservoir at a height calibrated to yield 120 mmHg. The intraocular pressure (IOP) was elevated to 120 mmHg for 45-60 min. I/R injury and choroidal nonperfusion was evident by whitening of the anterior segment of the globe and blanching of the episcleral veins. During infusion, topical anesthesia (0.5% tetracaine HCL, Bausch & Lomb, NJ, USA) was applied to the cornea. After ischemia, the needle was immediately withdrawn, allowing for rapid reperfusion, IOP was normalized, and reflow of the retinal vasculature was confirmed by observation of the episcleral veins. […]
Visual acuity was assessed behaviorally by training and testing mice on the “cue” version of the Morris water maze task. […]

HREs [8] = assay: Cell migration assay (wounded HREs, CM of treated MSCs); format: cell-based, human; conditions: 12 h of treatment with CM of modulated MSCs
Description: HREs were grown to confluence and then were wound with a single sterile cell scraper of constant diameter. Cells were divided into three groups, treated with regular media without FBS, and 1:1 mixture of FBS-free regular media and CM of vehicle- or treated-MSCs. Images of wounded areas were taken immediately after adding the treatment using a phase contrast microscope, and baseline were marked under the cell culture dish with blue marker. After 12 h, images of same field were taken and % cell migration was calculated. Each condition was verified in triplicate and was repeated using independent cultures.

[9] = HREs treated with CM of modulated MSCs vs controls
[10] = HREs treated with CM of modulated MSCs, fold change, delta-delta CT, relative to controls

CCC(C)C(N)C(=O)NCCN1CCOCC1 (stereo not shown) [LM11A-31, 2-amino-3-methyl-pentanoic acid [2-morpholin-4-yl-ethyl]-amide]
phase I safety trial outcome [1]: successfully completed | blood-brain barrier crossing ([2]; 50 mg/kg, oral administration): cross the blood-brain barrier | oral bioavailability ([2]; in vivo, po): orally bioavailable | number of junction points, increase (HREs [3]): 1.5 Fold | tube length, increase (HREs [3]): 1.4 Fold | NGF in MSCs conditioned medium, increase (p75^NTR on MSCs): ~4 Fold | SDF-1α in MSCs conditioned medium, increase (p75^NTR on MSCs): ~14.9 Fold | VEGF-A in MSCs conditioned medium, increase (p75^NTR on MSCs): 1.6 Fold | specificity to p75NTR: protective activity (p75NTR): complete loss of its protective activity | water solubility [4]: water-soluble | UAER normalized to creatinine (p75^NTR [5]; control animals): did not alter baseline | blood glucose level (p75^NTR [5]; control or diabetic animals): did not alter | renal fibrotic markers (Fibronectin, alpha-SMA) (p75^NTR [5]; controls): did not alter base-line | Urinary albumin excretion rate (UAER) normalized to creatinine (p75^NTR [5]; diabetic animals): significantly improved; also recorded: increase | body weight (p75^NTR [5]; diabetic animals): preserved the weight | glomeruli areas (PAS staining) (p75^NTR [5]; diabetic animals): significantly preserved glomeruli areas back to normal glomeruli size | glomeruli size (Trichome staining) (p75^NTR [5]; diabetic animals): preserved glomeruli size | kidney NGF levels, Western Blot (p75^NTR [5]; diabetic animals): restored | kidney TNF-α expression (inflammatory marker), Western Blot (p75^NTR [5]; diabetic animals): significantly prevented the increase; also recorded: significantly improved | kidney p-JNK (apoptotic marker), Western Blot (p75^NTR [5]; diabetic animals): significantly prevented the increase; also recorded: significantly improved | ratio of kidney weight to body weight (p75^NTR [5]; diabetic animals): significantly improved | renal TGF-beta expression (p75^NTR [5]; diabetic animals): significantly prevented the increase; also recorded: significantly improved | renal and urinary inflammation (kidney IL-6 and IL-1β mRNA, urine IL-1β by ELISA) (p75^NTR [5]; diabetic animals): significantly prevented the increase | renal fibrosis (Trichome staining) (p75^NTR [5]; diabetic animals): significantly improved fibrosis | renal fibrotic markers (Fibronectin, alpha-SMA), Western Blot (p75^NTR [5]; diabetic animals): significantly prevented the increase; also recorded: significantly improved | p75^NTR expression in kidney sections (immunohistochemistry) (p75^NTR [5]; diabetic or control animals): did not alter | ratio of kidney weight to body weight (p75^NTR [5]; treated controls): did not alter the baseline | Akt gene expression in HREs, increase (HREs [6]; [9]): ~2.7 Fold | Bax gene expression in HREs, increase (HREs [6]; [9]): ~1.9 Fold | Bcl-2 gene expression in HREs, increase (HREs [6]; [9]): ~2.5 Fold | VEGF-A gene expression in HREs, increase (HREs [6]; [9]): ~3.5 Fold | p53 gene expression in HREs, change (HREs [6]; [9]): no change | p53 relative gene expression in HREs (mean±SEM) (HREs [6]; HREs treated with CM of modulated MSCs, first value of the printed pair): 3.7±3.4 | Akt relative gene expression in HREs (mean±SEM) (HREs [6]; [10]): 2.68±0.53 | Bax relative gene expression in HREs (mean±SEM) (HREs [6]; [10]): 1.88±0.105 | Bcl-2 relative gene expression in HREs (mean±SEM) (HREs [6]; [10]): 2.45±0.24 | VEGF-A relative gene expression in HREs (mean±SEM) (HREs [6]; [10]): 3.58±0.58 | time to reach the platform (visual-clue water maze) (p75^NTR [7]; I/R both eyes, 50 mg/kg/day oral gavage every other day from 48 h post I/R, 6, 9, 12, 15 days post I/R, 50 mg/kg/day): significantly ameliorated; also recorded: attenuated | area under the curve (AUC) of time to platform after 15 days (p75^NTR [7]; I/R, 50 mg/kg/day oral gavage every other day): normalized | HREs migration, increase (HREs [8]): 1.34 Fold
